{
  "source": "patent US10829796B2",
  "about": "“Bacteria identification and antimicrobial susceptibility test” (priority 2015, dated 2020)",
  "assay_type_in_all_cases": "cell-based",
  "key": {"Staphylococcus aureus": {"system": "Staphylococcus aureus", "test": "Antibiotic susceptibility testing (colour of media), spiked milk", "conditions": "for Colour of media: Tryptic Soy (70 ul composition 2c), bacteria sample 5c; for Colour of media in each well: T~16 h, 37° C., plate configuration #3", "description": "(§1) Tables 36 to 38 which follow show further examples of antibiotic susceptibility testing performed in accordance with the present invention. Table 36, antibiotic susceptibility testing of Staphylococcus aureus in Mueller Hinton and Tryptic Soy Broth at pre-incubation and at between 15-24 h. Tables 37 and 38, antimicrobial susceptibility testing of Streptococcus uberis and E. coli with the addition of gram negative specific antibiotic aztreonam. Tables 38 to 49 show further examples of antibiotic susceptibility testing and the outcomes are aligned with the described inventions."}, "Escherichia coli": {"system": "Escherichia coli", "test": "Antibiotic susceptibility testing (colour of media), spiked milk", "conditions": "for Colour of media in each well: 37° C., plate configuration #3", "description": "as §1"}, "Streptococcus uberis": {"system": "Streptococcus uberis", "test": "Antibiotic susceptibility testing (colour of media), spiked milk", "conditions": "for Colour of media in each well: T~16 h, 37° C., bacteria samples 6d, plate configuration #3", "description": "as §1"}, "[1]": {"system": "bacteria samples 4c, 4e, 5c, 5e, 6d", "test": "Antibiotic susceptibility testing (colour of media), plate configuration #3, reference colours at 0 hours for bacteria samples 4c, 4e, 5c, 5e, 6d", "conditions": "T~0 h"}, "[2]": {"conditions": "bacteria sample 4d 4 μl + Composition 27 1 μl + drug solution (100 μg Aztreonam per ml water) 0.5 μl"}, "[3]": {"conditions": "bacteria sample 4d 8 μl + Composition 27 2 μl + drug solution (100 μg Aztreonam per ml water) 1 μl"}, "[4]": {"conditions": "bacteria sample 4d 20 μl + Composition 27 5 μl + drug solution (100 μg Aztreonam per ml water) 2.5 μl"}, "[5]": {"conditions": "bacteria sample 4d 40 μl + Composition 27 10 μl + drug solution (100 μg Aztreonam per ml water) 5 μl"}, "[6]": {"conditions": "bacteria sample 4d 80 μl + Composition 27 20 μl + drug solution (100 μg Aztreonam per ml water) 10 μl"}, "[7]": {"conditions": "bacteria sample 4d 160 μl + Composition 27 40 μl + drug solution (100 μg Aztreonam per ml water) 20 μl"}, "[8]": {"conditions": "bacteria sample 6d 4 μl + Composition 27 1 μl + drug solution (100 μg Aztreonam per ml water) 0.5 μl"}, "[9]": {"conditions": "bacteria sample 6d 8 μl + Composition 27 2 μl + drug solution (100 μg Aztreonam per ml water) 1 μl"}, "[10]": {"conditions": "bacteria sample 6d 20 μl + Composition 27 5 μl + drug solution (100 μg Aztreonam per ml water) 2.5 μl"}, "[11]": {"conditions": "bacteria sample 6d 40 μl + Composition 27 10 μl + drug solution (100 μg Aztreonam per ml water) 5 μl"}, "[12]": {"conditions": "bacteria sample 6d 80 μl + Composition 27 20 μl + drug solution (100 μg Aztreonam per ml water) 10 μl"}, "[13]": {"conditions": "bacteria sample 6d 160 μl + Composition 27 40 μl + drug solution (100 μg Aztreonam per ml water) 20 μl"}},
  "data": [
    {"compound": "C[C@H]1[C@H](NC(=O)/C(=N\\OC(C)(C)C(=O)O)c2csc(N)n2)C(=O)N1S(=O)(=O)O", "note": "[aztreonam]", "values": [
      {"measurement": "Colour of media", "setting": "Staphylococcus aureus; T = 0 hours (pre incubation), drug 0.01 μg/ml", "result": "red"},
      {"measurement": "Colour of media", "setting": "Staphylococcus aureus; T = 0 hours (pre incubation), drug 0.05 μg/ml", "result": "red"},
      {"measurement": "Colour of media", "setting": "Staphylococcus aureus; T = 0 hours (pre incubation), drug 0.1 μg/ml", "result": "red"},
      {"measurement": "Colour of media", "setting": "Staphylococcus aureus; T = 0 hours (pre incubation), drug 0.5 μg/ml", "result": "red"},
      {"measurement": "Colour of media", "setting": "Staphylococcus aureus; T = 0 hours (pre incubation), drug 1 μg/ml", "result": "red"},
      {"measurement": "Colour of media", "setting": "Staphylococcus aureus; T = 0 hours (pre incubation), drug 5 μg/ml", "result": "red"},
      {"measurement": "Colour of media", "setting": "Staphylococcus aureus; T = 0 hours (pre incubation), drug 10 μg/ml", "result": "red"},
      {"measurement": "Colour of media", "setting": "Staphylococcus aureus; T = 0 hours (pre incubation), drug 50 μg/ml", "result": "red"},
      {"measurement": "Colour of media", "setting": "Staphylococcus aureus; T = 0 hours (pre incubation), drug 100 μg/ml", "result": "red"},
      {"measurement": "Colour of media", "setting": "Staphylococcus aureus; T = 0 hours (pre incubation), drug 500 μg/ml", "result": "red"},
      {"measurement": "Colour of media", "setting": "Staphylococcus aureus; T = 15-24 h at 35° C., drug 0.01 μg/ml", "result": "yellow"},
      {"measurement": "Colour of media", "setting": "Staphylococcus aureus; T = 15-24 h at 35° C., drug 0.05 μg/ml", "result": "yellow"},
      {"measurement": "Colour of media", "setting": "Staphylococcus aureus; T = 15-24 h at 35° C., drug 0.1 μg/ml", "result": "yellow"},
      {"measurement": "Colour of media", "setting": "Staphylococcus aureus; T = 15-24 h at 35° C., drug 0.5 μg/ml", "result": "yellow"},
      {"measurement": "Colour of media", "setting": "Staphylococcus aureus; T = 15-24 h at 35° C., drug 1 μg/ml", "result": "yellow"},
      {"measurement": "Colour of media", "setting": "Staphylococcus aureus; T = 15-24 h at 35° C., drug 5 μg/ml", "result": "yellow"},
      {"measurement": "Colour of media", "setting": "Staphylococcus aureus; T = 15-24 h at 35° C., drug 10 μg/ml", "result": "yellow"},
      {"measurement": "Colour of media", "setting": "Staphylococcus aureus; T = 15-24 h at 35° C., drug 50 μg/ml", "result": "yellow"},
      {"measurement": "Colour of media", "setting": "Staphylococcus aureus; T = 15-24 h at 35° C., drug 100 μg/ml", "result": "yellow"},
      {"measurement": "Colour of media", "setting": "Staphylococcus aureus; T = 15-24 h at 35° C., drug 500 μg/ml", "result": "yellow"},
      {"measurement": "Colour of media in each well", "setting": "Staphylococcus aureus; bacteria samples 5c, Aztreonam 0.001 μg/ml", "result": "red"},
      {"measurement": "Colour of media in each well", "setting": "Staphylococcus aureus; bacteria samples 5c, Aztreonam 0.01 μg/ml", "result": "yellow"},
      {"measurement": "Colour of media in each well", "setting": "Staphylococcus aureus; bacteria samples 5c, Aztreonam 0.1 μg/ml", "result": "yellow"},
      {"measurement": "Colour of media in each well", "setting": "Staphylococcus aureus; bacteria samples 5c, Aztreonam 1 μg/ml", "result": "yellow"},
      {"measurement": "Colour of media in each well", "setting": "Staphylococcus aureus; bacteria samples 5c, Aztreonam 10 μg/ml", "result": "yellow"},
      {"measurement": "Colour of media in each well", "setting": "Staphylococcus aureus; bacteria samples 5e, Aztreonam 0.001 μg/ml", "result": "yellow"},
      {"measurement": "Colour of media in each well", "setting": "Staphylococcus aureus; bacteria samples 5e, Aztreonam 0.01 μg/ml", "result": "yellow"},
      {"measurement": "Colour of media in each well", "setting": "Staphylococcus aureus; bacteria samples 5e, Aztreonam 0.1 μg/ml", "result": "yellow"},
      {"measurement": "Colour of media in each well", "setting": "Staphylococcus aureus; bacteria samples 5e, Aztreonam 1 μg/ml", "result": "yellow"},
      {"measurement": "Colour of media in each well", "setting": "Staphylococcus aureus; bacteria samples 5e, Aztreonam 10 μg/ml", "result": "yellow"},
      {"measurement": "Colour of media in each well", "setting": "Escherichia coli; T~16 h, bacteria samples 4c, Aztreonam 0.001 μg/ml", "result": "yellow"},
      {"measurement": "Colour of media in each well", "setting": "Escherichia coli; T~16 h, bacteria samples 4c, Aztreonam 0.01 μg/ml", "result": "yellow"},
      {"measurement": "Colour of media in each well", "setting": "Escherichia coli; T~16 h, bacteria samples 4c, Aztreonam 0.1 μg/ml", "result": "yellow"},
      {"measurement": "Colour of media in each well", "setting": "Escherichia coli; T~16 h, bacteria samples 4c, Aztreonam 1 μg/ml", "result": "yellow"},
      {"measurement": "Colour of media in each well", "setting": "Escherichia coli; T~16 h, bacteria samples 4c, Aztreonam 10 μg/ml", "result": "yellow"},
      {"measurement": "Colour of media after 24 hours incubation at 37° C.", "setting": "Escherichia coli; [2]", "result": "Red"},
      {"measurement": "Colour of media prior incubation", "setting": "Escherichia coli; [2]", "result": "Red"},
      {"measurement": "Colour of media after 24 hours incubation at 37° C.", "setting": "Escherichia coli; [3]", "result": "Red"},
      {"measurement": "Colour of media prior incubation", "setting": "Escherichia coli; [3]", "result": "Red"},
      {"measurement": "Colour of media after 24 hours incubation at 37° C.", "setting": "Escherichia coli; [4]", "result": "Red"},
      {"measurement": "Colour of media prior incubation", "setting": "Escherichia coli; [4]", "result": "Red"},
      {"measurement": "Colour of media after 24 hours incubation at 37° C.", "setting": "Escherichia coli; [5]", "result": "Red"},
      {"measurement": "Colour of media prior incubation", "setting": "Escherichia coli; [5]", "result": "Red"},
      {"measurement": "Colour of media after 24 hours incubation at 37° C.", "setting": "Escherichia coli; [6]", "result": "Red"},
      {"measurement": "Colour of media prior incubation", "setting": "Escherichia coli; [6]", "result": "Red"},
      {"measurement": "Colour of media after 24 hours incubation at 37° C.", "setting": "Escherichia coli; [7]", "result": "Red"},
      {"measurement": "Colour of media prior incubation", "setting": "Escherichia coli; [7]", "result": "Red"},
      {"measurement": "Colour of media in each well", "setting": "Escherichia coli; t~16 h, bacteria samples 4e, Aztreonam 0.001 μg/ml", "result": "yellow"},
      {"measurement": "Colour of media in each well", "setting": "Escherichia coli; t~16 h, bacteria samples 4e, Aztreonam 0.01 μg/ml", "result": "yellow"},
      {"measurement": "Colour of media in each well", "setting": "Escherichia coli; t~16 h, bacteria samples 4e, Aztreonam 0.1 μg/ml", "result": "yellow"},
      {"measurement": "Colour of media in each well", "setting": "Escherichia coli; t~16 h, bacteria samples 4e, Aztreonam 1 μg/ml", "result": "red"},
      {"measurement": "Colour of media in each well", "setting": "Escherichia coli; t~16 h, bacteria samples 4e, Aztreonam 10 μg/ml", "result": "red"},
      {"measurement": "Colour of media in each well", "setting": "Streptococcus uberis; Aztreonam 0.001 μg/ml", "result": "yellow"},
      {"measurement": "Colour of media in each well", "setting": "Streptococcus uberis; Aztreonam 0.01 μg/ml", "result": "yellow"},
      {"measurement": "Colour of media in each well", "setting": "Streptococcus uberis; Aztreonam 0.1 μg/ml", "result": "yellow"},
      {"measurement": "Colour of media in each well", "setting": "Streptococcus uberis; Aztreonam 1 μg/ml", "result": "yellow"},
      {"measurement": "Colour of media in each well", "setting": "Streptococcus uberis; Aztreonam 10 μg/ml", "result": "yellow"},
      {"measurement": "Colour of media after 24 hours incubation at 37° C.", "setting": "Streptococcus uberis; [8]", "result": "Black"},
      {"measurement": "Colour of media prior incubation", "setting": "Streptococcus uberis; [8]", "result": "Red"},
      {"measurement": "Colour of media after 24 hours incubation at 37° C.", "setting": "Streptococcus uberis; [9]", "result": "Black"},
      {"measurement": "Colour of media prior incubation", "setting": "Streptococcus uberis; [9]", "result": "Red"},
      {"measurement": "Colour of media after 24 hours incubation at 37° C.", "setting": "Streptococcus uberis; [10]", "result": "Black"},
      {"measurement": "Colour of media prior incubation", "setting": "Streptococcus uberis; [10]", "result": "Red"},
      {"measurement": "Colour of media after 24 hours incubation at 37° C.", "setting": "Streptococcus uberis; [11]", "result": "Black"},
      {"measurement": "Colour of media prior incubation", "setting": "Streptococcus uberis; [11]", "result": "Red"},
      {"measurement": "Colour of media after 24 hours incubation at 37° C.", "setting": "Streptococcus uberis; [12]", "result": "Black"},
      {"measurement": "Colour of media prior incubation", "setting": "Streptococcus uberis; [12]", "result": "Red"},
      {"measurement": "Colour of media after 24 hours incubation at 37° C.", "setting": "Streptococcus uberis; [13]", "result": "Black"},
      {"measurement": "Colour of media prior incubation", "setting": "Streptococcus uberis; [13]", "result": "Red"},
      {"measurement": "Colour of media in each well", "setting": "[1]; Aztreonam 0.001 μg/ml", "result": "red"},
      {"measurement": "Colour of media in each well", "setting": "[1]; Aztreonam 0.01 μg/ml", "result": "red"},
      {"measurement": "Colour of media in each well", "setting": "[1]; Aztreonam 0.1 μg/ml", "result": "red"},
      {"measurement": "Colour of media in each well", "setting": "[1]; Aztreonam 1 μg/ml", "result": "red"},
      {"measurement": "Colour of media in each well", "setting": "[1]; Aztreonam 10 μg/ml", "result": "red"}
    ]}
  ]
}
